Biological target: T1, DC-SIGN CRD (Homo sapiens, UniProt Q9NNX6)
T1 construct: with the DC-SIGN CRD were performed at a receptor concentration of 50 μM; made in house
T1 sequence (Q9NNX6 263-378 limits assumed): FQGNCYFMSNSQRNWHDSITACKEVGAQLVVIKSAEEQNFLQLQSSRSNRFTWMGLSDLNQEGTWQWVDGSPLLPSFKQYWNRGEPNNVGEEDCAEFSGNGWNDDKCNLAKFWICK
Test: 19F R2-filtered NMR reporter displacement assay with DC-SIGN
Format: binding
Conditions: for Ki: 19F R2-filtered NMR, DC-SIGN CRD, pH 7.0, 25 °C; for specificity: Table 1, Langerin against DC-SIGN
Description: Figure S7. 19F R2-filtered NMR assay development with DC-SIGN. […]
substantial line broadeni ng. This phenomenon was utilized to develop the 19F R2-filtered NMR reporter displacement assay following the procedure previously published for Langerin 3. The spectrum in absence of DC -SIGN is processed with an exponential apodization function at 1.8 Hz. b. The interaction between 24 and DC-SIGN was quantified via the transversal relaxation rate R2,obs using the CPMG pulse sequence4-5. Representative decay curves in the presence of DC-SIGN are shown. c. The Ca2+-dependency of the interaction was validated via addition of EDTA. The R2,obs value in absence of DC-SIGN was determined from four independent experiments. The standard error for the experiments in presence of DC-SIGN and EDTA is derived directly from the fitting procedure. d. Relaxation dispersion experiments for 24 in presence of DC-SIGN indicate at negligible exchange contribution R2,ex at a νCPMG value of 500 Hz. In contrast to Langerin, a considerable exchange contribution is observed a lower νCPMG values. e. A representative binding isotherm for the affinity determination for 24 is shown. The KD value was determined from three independent titrations. The obtained K D and additional parameters from the fitting procedure are given in Tab le S3.
(1 picture or pasted object on this page, not shown here)
Receptor Expression and Purification
General remarks. Codon-optimized genes for the expression of Langerin and DC-SIGN in E. coli were purchased from GenScript and Life Technologies, respectively. All growth media or chemicals used for receptor expression and purification were purchased from Carl Roth if not stated otherwise. […]
Langerin and DC-SIGN carbohydrate recognition domain. Expression and purification were conducted as previously published14. Briefly, the monomeric 15N-labeled Langerin and DC-SIGN carbohydrate recognition domains (CRDs) were expressed insolubly in E. coli BL21* (DE3) (Invitrogen). Following enzymatic cell lysis, inclusion bodies were harvested and subsequently solubilized. The sample was centrifuged and the Langerin and DC-SIGN CRDs were refolded overnight via rapid dilution. Next, the sample was dialyzed overnight, centrifuged and purified via StrepTactin affinity chromatography (Iba). After an additional dialysis step overnight, the sample was centrifuged and the buffer was exchanged to 25 mM HEPES with 150 mM NaCl at pH 7.0 using 7 kDa size-exclusion desalting columns (Thermo Scientific) for 19F R2-filtered and 15N HSQC NMR experiments. The concentration of Langerin and DC -SIGN CRDs was determined via UV spectroscopy (A280, 0.1% = 3.19 and A280, 0.1% = 2.98). Purity and monodispersity of Langerin and DC - SIGN CRD samples were analyzed via SDS PAGE and DLS.
General remarks. 19F R2-filtered NMR experiments were conducted on a PremiumCompact 600 MHz spectrometer (Agilent). Spectra were processed in MestReNova and data analysis was performed with OriginPro 13, 15. Experiments with the Langerin ECD were performed at a receptor concentration of 50 μM in 25 mM Tris with 10% D2O, 150 mM NaCl and 5 mM CaCl2 at pH 7.8 and 25° C. Experiments […]
with the DC-SIGN CRD were performed at a receptor concentration of 50 μM in 25 mM HEPES with 10% D2O, 150 mM NaCl and 5 mM CaCl2 at pH 7.0 and 25°C. TFA served as an internal reference at a concentration of 50 μM. Apparent relaxation rates R2,obs for the reporter ligand were determined using the CPMG pulse sequence as previously published3-5.
Assay development for DC-SIGN. The 19F R2-filtered NMR reporter displacement assay for DC-SIGN was developed following the procedure previously published for Langerin3. Briefly, the KD value and the relaxation rate in bound state R2,b were determined at five concentrations [L]T of reporter ligand 24 in three independent titration experiments. Samples were prepared via serial dilution. The addition of 10 mM EDTA served to validate the Ca2+-dependency of the interaction between DC-SIGN and the reporter ligand. […]

Row | Compound | Ki [mM] | specificity (from KI values) | specificity for Langerin against DC-SIGN (from KI values) [fold] | specificity for DC-SIGN over Langerin (from KI values) [fold]
1 | Cc1ccc(S(=O)(=O)N[C@H]2C(O)O[C@H](CO)[C@@H](O)[C@@H]2O)cc1 (some centres unmarked) [compound 2] | 17 ± 1 | 53 |  | 
2 | CC(=O)NCCO[C@@H]1O[C@H](CO)[C@@H](O)[C@H](O)[C@H]1NS(=O)(=O)c1ccc(C)cc1 [compound 16] | 15 ± 3 | 63 | 63 | 
3 | CC(=O)NCCO[C@H]1O[C@H](CO)[C@@H](O)[C@H](O)[C@@H]1O [compound 21] | 2.7 ± 0.3 | 0.27 |  | 3.7
